Source: patent US5744452A, “γ-L-glutamyl containing immunomodulator compounds and methods therewith” (Wei; Edward T., priority 1995, dated 1998)
Where a SMILES comes first, the peptide text is derived from it. Where no end group is shown, it is not given here.

Assays:
murine bone marrow cells = experiment: .THETA.-antigen expression on murine bone marrow cells (T-lymphocyte precursor differentiation); assay type: cell-based, CBA strain mice; parameters: .THETA.-antigen expression on murine bone marrow cells: unit not given here; conditions: for immunostimulatory activity in the in vitro assays used: .THETA.-antigen expression and IL-2 production assays, compared with Bestim; for Percent of murine bone marrow cells expressing .THETA.-antigen: Table 5; for .THETA.-antigen expression on murine bone marrow cells: Table 1
Description: Differentiation of murine T-lymphocyte precursors was studied by the enumeration of cells expressing early surface differentiation marker .THETA.-antigen. Bone marrow cells were obtained from CBA strain mice killed by cervical dislocation. Cells were washed from femur bones with Hank's balanced salt solution and washed 3 times with RPM 1-1640 medium by centrifugation at 400 xg. Peptides at desired concentrations were incubated with 1×10^6 /ml of obtained cells for 1 hour at 37° C. Theta-antigen (".THETA.-antigen") expression has been determined with antibrain antibodies in a cytotoxicity assay using complement-dependent cell lysis (Terasaki et al., "Microdroplet Lymphocyte Cytotoxicity Test. Manual of Tissue Typing Techniques," National Institutes of Health, Bethesda, Md., pp 50-55, 1972). Dead cells were counted microscopically after eosin staining. […] Its activity was much stronger than that of the reference thymogen peptide.
Differentiation of murine T-lymphocyte precursors was studied by the enumeration of cells expressing early surface differentiation marker--.THETA.-antigen which is an analog of the Thy-1 lymphocyte differentiation antigen. Bone marrow cells were obtained from CBA strain mice killed by cervical dislocation. Cells were washed from femur bones with Hank's balanced salt solution and washed 3 times with RPMI-1640 medium by centrifugation at 400 xg. Peptides at desired concentrations were incubated with 1×10^6 /ml of obtained cells for 1 hour at 37° C. .THETA.-antigen expression were determined with antibrain antibodies in a cytotoxicity assay using complement-dependent cell lysis (Terasaki et al., 1972). Dead cells were counted microscopically after eosin staining untreated bone marrow cells served as a negative control, and murine thymocytes as a positive control.

murine spleen cells = experiment: IL-2 production by Concanavalin A activated murine spleen cells (CTLL-2 cell assay); assay type: cell-based, CBA mice; conditions: for interleukin-2 production by murine spleen cells: Table 6; for IL-2 production by murine spleen cells: Table 2
Description: Spleen cells from CBA mice were cultured in tissue culture plates at a 10^6 cells/ml in RPMI-1640 medium supplemented with 10% fetal calf serum, 2 mM L-glutamine, and 80 μg/ml of Gentamycin. 1 μg/ml of Concanavalin A was used to activate basal IL-2 production from murine spleen lymphocytes. Bestim was added to cell cultures at the "0" time. After 36 hours supernatants were collected, centrifuged at 800 xg and IL-2 levels were measured in a CTLL-2 cell assay (Gillis et al., "T-cell Growth Factor: Parameters of Production and Quantitative Assay for Activity," J. Immunol., 120: 2027-2032, 1978). […] However, due to the variations in the method for IL-2 measurements clear dose-response comparisons could not be achieved.
IL-2 production studies have been performed using murine spleen lymphocytes activated with Concanavalin A. Spleen cells from CBA mice were cultured in a tissue culture plates at a 1×10^6 /ml concentration in RPMI-1640 medium supplemented with 10% fetal calf serum, 2 mM L-glutamine,80 μg/ml Gentamycin and 1 μg/ml Concanavalin A as an inducer of basal level IL-2 synthesis. Bestim at various concentration was added to cell cultures at the "0" time. After 36 hours supernatants were collected, centrifuged at 800 xg and used for IL-2 levels determination in a CTLL-2 cell assay (Gillis et al., 1978). IL-2-dependent CTLL-2 cells were grown in RPMI-1640 medium in the presence of 1-2 U/ml recombinant IL-2 as a growth factor. Before assay, cells were washed twice to remove IL-2 from the medium. After this wash tested supernatants were added and cells were incubated for 36 hours. IL-2-induced proliferation was assayed using a ^3 H-thymidine incorporation method.

[1] = cited from earlier work

Row | Molecule | immunostimulatory activity in the in vitro assays used (murine bone marrow cells) | Percent of murine bone marrow cells expressing .THETA.-antigen (murine bone marrow cells; peptide 0.0001 μg/ml) [%] | Percent of murine bone marrow cells expressing .THETA.-antigen (murine bone marrow cells; peptide 0.001 μg/ml) [%] | Percent of murine bone marrow cells expressing .THETA.-antigen (murine bone marrow cells; peptide 0.01 μg/ml) [%] | Percent of murine bone marrow cells expressing .THETA.-antigen (murine bone marrow cells; peptide 0.1 μg/ml) [%] | Percent of murine bone marrow cells expressing .THETA.-antigen (murine bone marrow cells; peptide 1.0 μg/ml) [%] | Percent of murine bone marrow cells expressing .THETA.-antigen (murine bone marrow cells; peptide 10 μg/ml) [%] | Percent of murine bone marrow cells expressing .THETA.-antigen (murine bone marrow cells; peptide 100 μg/ml) [%] | interleukin-2 production by murine spleen cells (murine spleen cells; peptide 0.001 μg/ml) | interleukin-2 production by murine spleen cells (murine spleen cells; peptide 0.01 μg/ml) | interleukin-2 production by murine spleen cells (murine spleen cells; peptide 0.1 μg/ml) | interleukin-2 production by murine spleen cells (murine spleen cells; peptide 1.0 μg/ml) | interleukin-2 production by murine spleen cells (murine spleen cells; peptide 10 μg/ml) | interleukin-2 production by murine spleen cells (murine spleen cells; peptide 100 μg/ml) | other results
1 | CN[C@@H](CCC(=O)N[C@@H](Cc1c[nH]c2ccccc12)C(=O)O)C(=O)O [B, N-methyl-γ-L-glutamyl-L-tryptophan] | active compounds were obtained | 20 | 29 | 34 | 40 | 47 | 51 | 53 | 134 ± 6 | 147 ± 8 | 152 ± 7 | 165 ± 6 | 171 ± 6 | 180 ± 11 | –
2 | CC(=O)N[C@@H](CCC(=O)N[C@@H](Cc1c[nH]c2ccccc12)C(=O)O)C(=O)O [C, N-acetyl-γ-L-glutamyl-L-tryptophan] | active compounds were obtained | 19 | 28 | 35 | 40 | 45 | 46 | 50 | 128 ± 7 | 136 ± 7 | 149 ± 5 | 157 ± 9 | 170 ± 4 | 174 ± 8 | –
3 | N[C@@H](CCC(=O)N[C@@H](Cc1cn(C=O)c2ccccc12)C(=O)O)C(=O)O [D, γ-L-glutamyl-Nin -formyl-L-tryptophan] | active compounds were obtained | 24 | 25 | 30 | 36 | 42 | 48 | 53 | 114 ± 16 | 125 ± 3 | 153 ± 20 | 132 ± 8 | 144 ± 7 | 154 ± 5 | –
4 | N[C@@H](CCC(=O)O)C(=O)N[C@@H](Cc1c[nH]c2ccccc12)C(=O)O [Thymogen, L-glutamyl-L-tryptophan, reference compound] (H-Glu-Trp-OH) | – | – | – | 18 | 20 | 25 | 29 | 32 | 115 ± 8 | 132 ± 16 | 118 ± 11 | 128 ± 5 | 129 ± 10 | 136 ± 4 | .THETA.-antigen expression on murine bone marrow cells (murine bone marrow cells; peptide 0.0001 μg/ml, 1 hour 37° C.): 10 ± 0.5; .THETA.-antigen expression on murine bone marrow cells (murine bone marrow cells; peptide 0.001 μg/ml): 10 ± 1.2; .THETA.-antigen expression on murine bone marrow cells (murine bone marrow cells; peptide 0.01 μg/ml): 10 ± 0.5; .THETA.-antigen expression on murine bone marrow cells (murine bone marrow cells; peptide 0.1 μg/ml): 9 ± 1.0; .THETA.-antigen expression on murine bone marrow cells (murine bone marrow cells; peptide 1.0 μg/ml): 21 ± 0.8; .THETA.-antigen expression on murine bone marrow cells (murine bone marrow cells; peptide 10 μg/ml): 36 ± 2.8; .THETA.-antigen expression on murine bone marrow cells (murine bone marrow cells; peptide 100 μg/ml): 37 ± 2.2; IL-2 production by murine spleen cells (murine spleen cells; peptide 0.001 μg/ml, 36 hours): 114 ± 12; IL-2 production by murine spleen cells (murine spleen cells; peptide 0.01 μg/ml): 106 ± 10; IL-2 production by murine spleen cells (murine spleen cells; peptide 0.1 μg/ml): 106 ± 5; IL-2 production by murine spleen cells (murine spleen cells; peptide 1.0 μg/ml): 189 ± 13; IL-2 production by murine spleen cells (murine spleen cells; peptide 10 μg/ml): 80 ± 9; IL-2 production by murine spleen cells (murine spleen cells; peptide 100 μg/ml): 89 ± 3
5 | N[C@@H](CCC(=O)N[C@@H](Cc1c[nH]cn1)C(=O)O)C(=O)O [γ-L-glutamyl-L-histidine] | little, if any, of the activities of Bestim | – | – | – | – | – | – | – | – | – | – | – | – | – | –
6 | CC[C@H](C)[C@H](NC(=O)CC[C@H](N)C(=O)O)C(=O)O [γ-L-glutamyl-L-isoleucine] | little, if any, of the activities of Bestim | – | – | – | – | – | – | – | – | – | – | – | – | – | –
7 | CC(C)C[C@H](NC(=O)CC[C@H](N)C(=O)O)C(=O)O [γ-L-glutamyl-L-leucine] | little, if any, of the activities of Bestim | – | – | – | – | – | – | – | – | – | – | – | – | – | –
8 | N[C@@H](CCC(=O)N[C@@H](Cc1ccccc1)C(=O)O)C(=O)O [γ-L-glutamyl-L-phenylalanine] | little, if any, of the activities of Bestim | – | – | – | – | – | – | – | – | – | – | – | – | – | –
9 | N[C@@H](CCC(=O)N1CCC[C@H]1C(=O)O)C(=O)O [γ-L-glutamyl-L-proline] | little, if any, of the activities of Bestim | – | – | – | – | – | – | – | – | – | – | – | – | – | –
10 | N[C@@H](CCC(=O)N[C@@H](Cc1ccc(O)cc1)C(=O)O)C(=O)O [γ-L-glutamyl-L-tyrosine] | little, if any, of the activities of Bestim | – | – | – | – | – | – | – | – | – | – | – | – | – | –
11 | RKDVY [thymopentin, Arg-Lys-Asp-Val-Tyr] | – | – | – | – | – | – | – | – | – | – | – | – | – | – | half-life of breakdown in plasma [1]: 30 s
12 | γ-L-glutamyl-β-thienyl-D-alanyl-amide | active compounds were obtained | 20 | 23 | 20 | 27 | 28 | 36 | 40 | 146 ± 28 | 127 ± 26 | 128 ± 10 | 156 ± 11 | 172 ± 12 | 198 ± 7 | –
